Results on two compounds are retold here after US7678774B2 (priority 2003, dated 2010).

The test system of one assay is coronavirus (SARS). The following applies: cited from earlier work.
Assay [1] has as its system human coronavirus strain OC-43. In kind it is cell-based.
For assay [2], the system named is human coronavirus strain OC-43. In kind it is cell-based. This is another data set of the same source.
For assay [3], the system named is Mouse Hepatitis Virus Type-3 (MHV-3). As to conditions: in vivo; cited from earlier work.
Assay [4] shares this test system. The following applies: in vivo; cited from earlier work. The source holds these as a separate data set.
Assay [5] deals with Four human tumor cell lines. The following applies: cited from earlier work.

`NC(=O)c1ncn([C@@H]2O[C@H](CO)[C@@H](O)[C@H]2O)n1` [ribavirin]: the “Effect on the SARS coronavirus” value in the assay with coronavirus (SARS) is “no effect”.

Consider rIn.r(C12U)n, for which, in assay [1], the “Inhibition of virus in viral cytopathic inhibition assay” value was “inhibit”. Further, the “Inhibition of virus in neutral red assay” value in assay [2] is given as “inhibit”. Besides, the “Survival relative to untreated mice” value in assay [3] is “survived up to four times longer”. The “Virus clearance and development of chronic hepatitis” value in assay [4] was “cleared the virus quickly and did not develop chronic hepatitis”. The “Antiproliferative interaction with interferons” value in assay [5] is reported as “worked synergistically with all interferons in all cell lines studied”.
